# Experimental data from PMC7262662 (BioMed Research International, 2020).
# pEC50: −log10 of the molar value. Marks after values point to notes of the source that are not given here.
# Tests used:
# CrFK cells = experiment: Cellular uptake study by fluorescence microscopy; assay type: cell-based, feline; settings: 20 μM, examined at 1, 3 and 6 h
# Method: The cellular uptake of curcumin and the Cur-CS nanoparticles by CrFK cells was examined using the fluorescence method. […] The plates were incubated at 37°C in an incubator with 5% CO2 for 24 h. […] At these intervals, the cells were rinsed three times with PBS. […] The dried coverslips were mounted on a glass slide, and images were captured by an Olympus IX81 inverted fluorescence microscope (Olympus, Japan) under a 535–600 nm filter.
# FIPV strain WSU 79-1146 = experiment: Cytopathic effect inhibition assay (time of addition, MTT); assay type: cell-based, feline infectious peritonitis virus
# Method: The cytopathic effect (CPE) inhibition assay with slight modifications was used as previously described. […] In pretreatment, the compounds were included in the cell culture medium for 8 h and were removed prior to virus infection. In cotreatment, the compounds were mixed with virus in the medium, added simultaneously to the cells, and left on the cells throughout. For posttreatment, the compounds were added to the cells 2 h postinfection (hpi) and remained throughout the time of infection. […] After incubation at 37°C for 48 and 72 h, the cell viability was determined by MTT.
# The percentage of protection was calculated based on the OD using the following formula: (3) Percentage of protection %=OD570 T−OD570 V/OD570 C−OD570 V×100, where T is the treated sample, V is the virus-infected control, and C is the negative control.
# The median effective concentration (EC50) is the concentration of compound required to achieve 50% protection against virus-induced CPE.
# FIPV = experiment: Antiviral assay in cotreatment: viral RNA quantification by qPCR; assay type: cell-based, feline infectious peritonitis virus; settings: for % log10 copy number decrement: compared to FIPV sample; for 3′UTR log10 copy number: cotreatment
# Method: CrFK cells at a density of 1 × 10^5 were cultured in medium in 24-well plates for 24 h at 37°C. […] The culture supernatant was centrifuged at 700 g for 10 min, and the virus-containing supernatant was collected and used for virus quantification.
# Viral RNA was extracted from the collected supernatant using a Viral Nucleic Acid Extraction Kit II (Geneaid, New Taipei City, Taiwan) following the protocol provided by the manufacturer. Cellular total RNA was extracted from the CrFK cell pellet using the RNeasy® Mini Kit, which includes DNase treatment (QIAGEN, Germantown, MD, USA). The concentration and purity of the extracted RNA were quantified using the Eppendorf BioSpectrometer® kinetic (Eppendorf, Hamburg, Germany). The extracted RNA was stored at -80°C until further use.
# Complementary DNA (cDNA) was prepared, and viral mRNA was quantified using quantitative PCR (qPCR) employing previously described methods. The qPCR results were quantified using the absolute quantification approach, where a standard curve of a serial dilution of viral cDNA template was plotted before the quantification.
# FIPV-infected cells = experiment: Feline-specific magnetic bead-based multiplex immunoassay; assay type: cell-based; settings: 20 μM
# Method: The culture supernatant was centrifuged and used for the bead-based multiplex immunoassay, while the attached cells were trypsinised and collected for the cellular proinflammatory cytokine mRNA expression study.
# Nineteen immune-related proteins including cytokines, chemokines, growth factors, and other immunologically active proteins were measured using a commercially available feline-specific magnetic bead-based multiplex immunoassay. The Feline Cytokine/Chemokine Magnetic Bead Panel Premixed (FCYTOMAG-20K-PMX; EMD Millipore, Billerica, MA, USA) was purchased and used according to the manufacturer's recommendation. Quality control samples, standards, and sets of culture sample were run on plates in duplicate. Prior to measurement, the culture samples were concentrated using Concentrator 5301 (Eppendorf, Hamburg, Germany). The plates were evaluated using MAGPIX® (Luminex, Austin, TX, USA); subsequently, the results were analysed using MILLIPLEX Analyst v.5.1 (EMD Millipore, Billerica, MA, USA).
# different cells = test system: different cells; parameters: method as in PMID 23658730, doi:10.4236/aim.2016.64027, PMID 20603153; settings: ref [19], [60], [61]; cited from earlier work
structure (smiles),measurement,setting,value
COc1cc(/C=C/C(=O)CC(=O)/C=C/c2ccc(O)c(OC)c2)ccc1O [Curcumin],Cellular uptake: time at which green fluorescence was first observed,CrFK cells,3 h
same,SI,"FIPV strain WSU 79-1146; 48 h, CC50/EC50",3.72
same,pEC50,"FIPV strain WSU 79-1146; Alphacoronavirus 1, 48 h, 50% protection against virus-induced CPE, 100 TCID50 FIPV in CrFK cells",4.80
same,Percentage of protection,"FIPV strain WSU 79-1146; cotreatment, 48 h, 5 μM",21.98 ± 7.01^b %
same,Percentage of protection,"FIPV strain WSU 79-1146; cotreatment, 48 h, 10 μM",40.08 ± 3.71^d %
same,Percentage of protection,"FIPV strain WSU 79-1146; cotreatment, 48 h, 20 μM",55.95 ± 1.82^e %
same,Percentage of protection,"FIPV strain WSU 79-1146; cotreatment, 48 h, 20 μM, listed as curcumin",56%
same,Percentage of protection,"FIPV strain WSU 79-1146; cotreatment, 72 h, 5 μM",11.99 ± 3.43^b %
same,Percentage of protection,"FIPV strain WSU 79-1146; cotreatment, 72 h, 10 μM",18.82 ± 1.93^c %
same,Percentage of protection,"FIPV strain WSU 79-1146; cotreatment, 72 h, 20 μM",22.25 ± 2.05^c %
same,Percentage of protection,"FIPV strain WSU 79-1146; posttreatment, 48 h, 5 μM",0.08 ± 0.13^a %
same,Percentage of protection,"FIPV strain WSU 79-1146; posttreatment, 48 h, 10 μM",13.31 ± 3.93^b %
same,Percentage of protection,"FIPV strain WSU 79-1146; posttreatment, 48 h, 20 μM",17.28 ± 0.78^bc %
same,Percentage of protection,"FIPV strain WSU 79-1146; posttreatment, 72 h, 5 μM",0.99 ± 1.71^a %
same,Percentage of protection,"FIPV strain WSU 79-1146; posttreatment, 72 h, 10 μM",2.59 ± 1.55^a %
same,Percentage of protection,"FIPV strain WSU 79-1146; posttreatment, 72 h, 20 μM",2.13 ± 1.91^a %
same,Percentage of protection,"FIPV strain WSU 79-1146; pretreatment, 48 h, 5 μM",0.38 ± 0.66^a %
same,Percentage of protection,"FIPV strain WSU 79-1146; pretreatment, 48 h, 10 μM",3.87 ± 1.64^ab %
same,Percentage of protection,"FIPV strain WSU 79-1146; pretreatment, 48 h, 20 μM",12.79 ± 2.27^c %
same,Percentage of protection,"FIPV strain WSU 79-1146; pretreatment, 72 h, 5 μM",1.74 ± 1.06^ab %
same,Percentage of protection,"FIPV strain WSU 79-1146; pretreatment, 72 h, 10 μM",1.16 ± 1.82^a %
same,Percentage of protection,"FIPV strain WSU 79-1146; pretreatment, 72 h, 20 μM",5.12 ± 2.03^bc %
same,% log10 copy number decrement,"FIPV; 48 h, 5 μM",27.54 ± 3.28^b %
same,3′UTR log10 copy number,"FIPV; 48 h, 5 μM, FIPV sample 11.86 ± 0.06",11.72 ± 0.06^d
same,% log10 copy number decrement,"FIPV; 48 h, 10 μM",40.50 ± 5.41^c %
same,3′UTR log10 copy number,"FIPV; 48 h, 10 μM, FIPV sample 11.86 ± 0.06",11.63 ± 0.01^cd
same,% log10 copy number decrement,"FIPV; 48 h, 20 μM",59.46 ± 2.45^e %
same,% log10 copy number decrement,"FIPV; 48 h, 20 μM, listed as curcumin",59.46 ± 2.45%
same,3′UTR log10 copy number,"FIPV; 48 h, 20 μM, FIPV sample 11.86 ± 0.06",11.46 ± 0.05^b
same,% log10 copy number decrement,"FIPV; 72 h, 5 μM",10.70 ± 5.47^b %
same,3′UTR log10 copy number,"FIPV; 72 h, 5 μM, FIPV sample 12.00 ± 0.03",11.95 ± 0.01^cd
same,% log10 copy number decrement,"FIPV; 72 h, 10 μM",26.92 ± 5.93^cd %
same,3′UTR log10 copy number,"FIPV; 72 h, 10 μM, FIPV sample 12.00 ± 0.03",11.86 ± 0.06^abc
same,% log10 copy number decrement,"FIPV; 72 h, 20 μM",26.38 ± 2.75^c %
same,3′UTR log10 copy number,"FIPV; 72 h, 20 μM, FIPV sample 12.00 ± 0.03",11.87 ± 0.04^abc
same,TNFα concentration,"FIPV-infected cells; 24 h, infected cells untreated 38.13 ± 0.00",37.40 ± 1.04^b pg/mL
same,IL-18 concentration,"FIPV-infected cells; 24 h, infected cells untreated 60.62 ± 3.50",47.92 ± 1.73^ab pg/mL
same,KC concentration,"FIPV-infected cells; 24 h, infected cells untreated 80.76 ± 3.71",58.52 ± 15.92^bc pg/mL
same,SDF-1 concentration,"FIPV-infected cells; 24 h, infected cells untreated 161.3 ± 7.1",163.5 ± 3.1^b pg/mL
same,PDGF-BB concentration,"FIPV-infected cells; 24 h, infected cells untreated 445.6 ± 18.7",446.0 ± 0.0^b pg/mL
same,RANTES concentration,"FIPV-infected cells; 24 h, infected cells untreated 868.6 ± 62.1",746.7 ± 18.3^c pg/mL
same,MCP-1 concentration,"FIPV-infected cells; 24 h, infected cells untreated 934.8 ± 0.0",934.8 ± 0.0^c pg/mL
same,IL-8 concentration,"FIPV-infected cells; 24 h, infected cells untreated 2078.0 ± 138.6",1509.5 ± 16.3^c pg/mL
same,TNFα concentration,"FIPV-infected cells; 48 h, infected cells untreated 46.83 ± 6.11",35.18 ± 2.09^a pg/mL
same,IL-6 concentration,"FIPV-infected cells; 48 h, infected cells untreated 108.06 ± 4.85",54.75 ± 6.34^∗ pg/mL
same,SDF-1 concentration,"FIPV-infected cells; 48 h, infected cells untreated 158.2 ± 0.9",84.2 ± 2.9^a pg/mL
same,KC concentration,"FIPV-infected cells; 48 h, infected cells untreated 266.1 ± 35.2",186.4 ± 14.2^c pg/mL
same,PDGF-BB concentration,"FIPV-infected cells; 48 h, infected cells untreated 440.5 ± 43.1",354.2 ± 30.0^a pg/mL
same,MCP-1 concentration,"FIPV-infected cells; 48 h, infected cells untreated 934.2 ± 57.9",735.5 ± 34.2^a pg/mL
same,IL-8 concentration,"FIPV-infected cells; 48 h, infected cells untreated 1660.0 ± 196.6",1074.5 ± 9.2^b pg/mL
same,RANTES concentration,"FIPV-infected cells; 48 h, infected cells untreated 2317.0 ± 355.0",618.6 ± 70.8^b pg/mL
same,Exposure up to which no cytotoxic effect was observed,different cells,30 µM
